Data published in patent EP3569594A1, “METHOD FOR THE PREPARATION OF SUBSTITUTED PYRAZINES” (Universität Graz, priority 2018, dated 2019).

Key:
FOYE [1] = experiment: Reactivity screening of oximes with purified ene-reductase, conversion by GC-FID; assay type: biochemical, Ferrovum sp. JA12; settings: FOYE 100 µg/ml, 10 mM Oxim, 0,5 mM NAD(P)H/H+, Glucose/GDH, Tris-HCl pH 7,5, 30 °C, 24 h
Excerpt: (§1) Die En-Reduktase ist zwar nicht speziell eingeschränkt, ist aber vorzugsweise aus der OYE-Familie, d.h. der Familie der "Old Yellow Enzymes" ausgewählt, da Vertreter dieser Gruppe von Enzymen allesamt gute Ergebnisse geliefert haben. Noch bevorzugter ist die ER aus den folgenden bereits getesteten Enzymen ausgewählt: • OYE1 von Saccharomyces pastorianus, • OYE2 von Saccharomyces cerevisiae, • OYE3 von Saccharomyces cerevisiae, • 12-Oxophytodienoat-Reduktase 3 (OPR3) von Arabidopsis thaliana, • xenobiotischer Reduktase A (XenA) von Pseudomonas putida II-B und • En-Reduktase von Ferrovum sp. JA12 (FOYE).
(§2) Plasmide, die jeweils ein für eine der En-Reduktasen OYE1, OYE2, OYE3, OPR3, XenA und FOYE kodierendes Gen enthielten, wurden in chemisch kompetente E. coli BL21(DE3)-Zellen transformiert. Die sechs Über-Nacht-Kulturen wurden in LB-Medium, das mit 50 µg/ml Kanamycin (für OYE1-3 und FOYE) oder 100 µg/ml Ampicillin (für OPR3 und XenA) ergänzt worden war, bei 30 °C und 120 U/min kultiviert. Hauptkulturen (1 l LB-Medium, 50 µg/ml Kanamycin oder 100 µg/ml Ampicillin) wurden mit je 3 ml der entsprechenden Über-Nacht-Kultur inokuliert und bei 37 °C, 120 U/min geschüttelt, bis die OD600 0,6 bis 0,8 erreichte. Die Proteinproduktion wurde durch Zusatz von Isopropyl-β-D-thiogalactopyranosid (IPTG) (0,2 mM für OYE1-3 und XenA, 1 mM für OPR3 und 0,05 mM für FOYE) induziert und bei 20 °C über Nacht (für OYE1-3 und FOYE) oder bei 37 °C 4 h lang (für XenA und OPR3) geschüttelt. Die Zellen wurden durch Zentrifugation (5000 U/min, 4 °C, 20 min) geerntet, das Pellet wurde mit 100 mM Tris-HCI-Puffer pH 7,5 (25 ml) gewaschen und bei -20 °C gelagert.
(§3) Als Modellreaktion für die Feststellung der Enzymaktivität wurde im Handel erhältlicher 2-Oximinoacetessigsäureethylester (1a) mit den sechs in den Synthesebeispielen 1 bis 6 hergestellten En-Reduktasen (ER) in analytischem Maßstab umgesetzt. Dazu wurden in ein 2-ml-Eppendorf-Röhrchen 100 µg/ml der jeweiligen gereinigten En-Reduktase, 0,5 mM NAD(P)H/H^+, 50 mM Glucose und 1 mg/ml GDH in 100 mM Tris-HCl-Puffer, pH 7,5, gelöst. Die Reaktionen wurden durch Zugabe von 10 mM Oxim (1a) (aus einer 200 mM Stammlösung in DMSO) auf ein Endvolumen von 500 µl gestartet und 24 h lang bei 30 °C, 120 U/min geschüttelt. Danach wurden die Reaktionsgemische jeweils mit 1 ml Chloroform extrahiert, die organische Phase wurde über MgSO4 getrocknet und mittels GC-FID analysiert und der Umsatz anhand der Peakflächenprozentsätze ermittelt. Wie aus nachstehender Tabelle 1 hervorgeht, wurde nach 24 h in allen sechs Fällen praktisch vollständiger Umsatz festgestellt. Tabelle 1: Anfängliches Reaktivitätsscreening mit Modelloxim (1a)
(§4) Zur Ermittlung, welche anderen Derivate der 2-Oximinoacetessigsäure mittels enzymatischer Katalyse durch die sechs in den Synthesebeispielen 1 bis 6 hergestellten En-Reduktasen (1) zu Pyrazindicarbonsäure-Derivaten (2) umsetzbar sein würden, wurden die für die Beispiele 1 bis 6 beschriebene Vorgangsweise unter Verwendung der in den Synthesebeispielen 7 bis 13 hergestellten Oxime (1b) bis (1h) anstelle von (1a) wiederholt. Überraschenderweise wurde in sämtlichen Fällen nach 24 h praktisch vollständiger Umsatz beobachtet, wie aus nachstehender Tabelle 2 hervorgeht. Tabelle 2: Reaktivitätsscreening mit den Oximen (1b) bis (1h)

XenA = experiment: as above; assay type: biochemical, Pseudomonas putida II-B; settings: XenA 100 µg/ml, 10 mM Oxim, 0,5 mM NAD(P)H/H+, Glucose/GDH, Tris-HCl pH 7,5, 30 °C, 24 h
Excerpt: as §1, §2, §3, §4

OYE1 = biological target: T1, OYE1 (Saccharomyces pastorianus, UniProt Q02899); experiment: as above; assay type: biochemical; settings: OYE1 100 µg/ml, 10 mM Oxim, 0,5 mM NAD(P)H/H+, Glucose/GDH, Tris-HCl pH 7,5, 30 °C, 24 h
T1 construct: made in house; host or cells: E. coli BL21(DE3)
Excerpt: as §1, §2, §3, §4

OYE2 = biological target: T2, OYE2 (Saccharomyces cerevisiae, UniProt Q03558); experiment: as above; assay type: biochemical; settings: OYE2 100 µg/ml, 10 mM Oxim, 0,5 mM NAD(P)H/H+, Glucose/GDH, Tris-HCl pH 7,5, 30 °C, 24 h
T2 construct: made in house; host or cells: E. coli BL21(DE3)
Excerpt: as §1, §2, §3, §4

OPR3 = biological target: T3, OPR3 (Arabidopsis thaliana, UniProt Q9FUP0); experiment: as above; assay type: biochemical; settings: OPR3 100 µg/ml, 10 mM Oxim, 0,5 mM NAD(P)H/H+, Glucose/GDH, Tris-HCl pH 7,5, 30 °C, 24 h
T3 construct: made in house; host or cells: E. coli BL21(DE3)
Excerpt: as §1, §2, §3, §4

OYE3 = biological target: T4, OYE3 (Saccharomyces cerevisiae, UniProt P41816); experiment: as above; assay type: biochemical; settings: OYE3 100 µg/ml, 10 mM Oxim, 0,5 mM NAD(P)H/H+, Glucose/GDH, Tris-HCl pH 7,5, 30 °C, 24 h
T4 construct: made in house; host or cells: E. coli BL21(DE3)
Excerpt: as §1, §2, §3, §4

FOYE [2] = experiment: Photometric activity measurement by consumption of coenzyme NAD(P)H/H+ with diketone oximes; assay type: biochemical, Ferrovum sp. JA12
Excerpt: Zur Untersuchung, ob die enzymatische Katalyse auch mit 2-Oximino-1,3-diketonen anstelle der 2-Oximinoacetessigsäure-Derivate als Substrate abläuft, d.h. ob das Carbonsäure-Ende des Substratmoleküls für die Reaktion erforderlich ist, wurden die drei nachstehend dargestellten Diketon-Oxime (3a), (3b) und (3c) [drawing 12] auf analoge Weise zu den obigen Synthesebeispielen 7 bis 13 aus den entsprechenden Diketon-Ausgangsprodukten (Acetylaceton, ω-Acetylacetophenon und 1-Isopropylacetylaceton) hergestellt und auf analoge Weise zu den obigen Beispielen 7 und 8 mit FOYE als En-Reduktase umgesetzt.
Während der Reaktionen wurden photometrische Aktivitätsmessungen durchgeführt, bei denen die Enzymaktivität anhand des Verbrauchs des Coenzyms NAD(P)H/H^+ bestimmt wurde. Die Ergebnisse sind in nachstehender Tabelle 3 angeführt. Tabelle 3: Reaktivitätsscreening mit den Diketon-Oximen (3a) bis (3c)

T2 sequence (Q03558 whole entry): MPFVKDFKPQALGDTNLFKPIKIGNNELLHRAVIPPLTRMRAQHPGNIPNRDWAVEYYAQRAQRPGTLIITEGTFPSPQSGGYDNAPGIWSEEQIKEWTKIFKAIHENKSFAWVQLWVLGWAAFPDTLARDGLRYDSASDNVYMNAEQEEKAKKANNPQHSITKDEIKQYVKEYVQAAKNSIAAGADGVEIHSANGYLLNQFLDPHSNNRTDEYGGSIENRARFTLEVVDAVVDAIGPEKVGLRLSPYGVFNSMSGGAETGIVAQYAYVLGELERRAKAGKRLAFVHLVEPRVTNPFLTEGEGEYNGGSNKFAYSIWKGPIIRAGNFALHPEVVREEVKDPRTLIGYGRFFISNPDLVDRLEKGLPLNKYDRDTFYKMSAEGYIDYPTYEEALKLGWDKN
T1 sequence (Q02899 whole entry): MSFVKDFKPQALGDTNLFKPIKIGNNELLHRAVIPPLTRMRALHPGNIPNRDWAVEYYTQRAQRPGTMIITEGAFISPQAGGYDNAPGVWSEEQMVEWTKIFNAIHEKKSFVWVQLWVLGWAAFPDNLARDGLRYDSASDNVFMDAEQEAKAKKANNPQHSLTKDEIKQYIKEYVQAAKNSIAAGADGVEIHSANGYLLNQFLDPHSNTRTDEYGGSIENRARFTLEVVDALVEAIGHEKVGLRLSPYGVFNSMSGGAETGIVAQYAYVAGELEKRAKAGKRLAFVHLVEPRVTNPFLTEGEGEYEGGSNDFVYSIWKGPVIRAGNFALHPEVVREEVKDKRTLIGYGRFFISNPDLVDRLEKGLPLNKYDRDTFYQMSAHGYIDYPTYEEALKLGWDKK
T3 sequence (Q9FUP0 whole entry): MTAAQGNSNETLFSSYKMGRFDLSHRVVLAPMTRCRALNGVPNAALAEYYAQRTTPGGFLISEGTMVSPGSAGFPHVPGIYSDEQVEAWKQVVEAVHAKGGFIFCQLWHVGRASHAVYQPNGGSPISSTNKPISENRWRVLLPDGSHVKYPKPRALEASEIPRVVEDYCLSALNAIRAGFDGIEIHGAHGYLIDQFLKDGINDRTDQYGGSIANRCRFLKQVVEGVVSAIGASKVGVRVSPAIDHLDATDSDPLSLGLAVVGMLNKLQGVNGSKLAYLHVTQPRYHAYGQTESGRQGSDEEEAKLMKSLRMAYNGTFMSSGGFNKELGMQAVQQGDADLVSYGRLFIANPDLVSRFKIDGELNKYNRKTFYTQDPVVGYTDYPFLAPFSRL
T4 sequence (P41816 whole entry): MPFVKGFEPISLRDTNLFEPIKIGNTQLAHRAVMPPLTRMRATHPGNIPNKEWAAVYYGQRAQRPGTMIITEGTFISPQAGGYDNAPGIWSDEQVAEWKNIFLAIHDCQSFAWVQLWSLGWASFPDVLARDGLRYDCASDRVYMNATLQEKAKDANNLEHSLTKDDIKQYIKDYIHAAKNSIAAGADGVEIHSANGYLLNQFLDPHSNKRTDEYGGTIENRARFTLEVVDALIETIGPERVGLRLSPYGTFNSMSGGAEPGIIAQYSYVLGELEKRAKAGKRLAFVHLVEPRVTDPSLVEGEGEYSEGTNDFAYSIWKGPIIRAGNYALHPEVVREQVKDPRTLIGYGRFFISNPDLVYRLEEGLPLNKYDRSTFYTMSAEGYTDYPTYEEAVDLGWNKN

Compound | Umsatz (FOYE [1]) [%] | Umsatz (XenA) [%] | Umsatz (OYE1) [%] | Umsatz (OYE2) [%] | Umsatz (OPR3) [%] | Umsatz (OYE3) [%] | Aktivität (FOYE [2]) [U/mg]
CCOC(=O)C(=NO)C(C)=O [(1a), 2-Oximinoacetessigsäureethylester, reference compound] | > 99 | > 99 | > 99 | > 99 | > 99 | > 99 | –
CC(=O)C(=NO)C(=O)Nc1ccccc1 [(1b), 2-Oximinoacetessigsäure-N-phenylamid] | > 99 | > 99 | > 99 | > 99 | > 99 | > 99 | –
C=CCOC(=O)C(=NO)C(C)=O [(1c), 2-Oximinoacetessigsäureallylester] | > 99 | > 99 | > 99 | > 99 | > 99 | > 99 | –
CCCCOC(=O)C(=NO)C(C)=O [(1d), 2-Oximinoacetessigsäurebutylester] | > 99 | > 99 | > 99 | > 99 | > 99 | > 99 | –
CC(=O)C(=NO)C(=O)OCc1ccccc1 [(1e), 2-Oximinoacetessigsäurebenzylester] | > 99 | > 99 | > 99 | > 99 | > 99 | > 99 | –
CCCCCCCOC(=O)C(=NO)C(C)=O [(1f), 2-Oximinoacetessigsäureheptylester] | > 99 | > 99 | > 99 | > 99 | > 99 | > 99 | –
COCCOC(=O)C(=NO)C(C)=O [(1g), 2-Oximinoacetessigsäure-2-methoxyethylester] | > 99 | > 99 | > 99 | > 99 | > 99 | > 99 | –
CCOC(=O)C(=NO)C(=O)CC [(1h), 4-Methyl-2-oximinoacetessigsäureethylester] | > 99 | > 99 | > 99 | > 99 | > 99 | > 99 | –
CC(=O)C(=NO)C(C)=O [Oxim 3a, 3-Oximinoacetylaceton] | – | – | – | – | – | – | 6
CC(=O)C(=NO)C(=O)c1ccccc1 [Oxim 3b, α-Acetyl-α-oximinoacetophenon] | – | – | – | – | – | – | 18
CC(=O)C(=NO)C(=O)CC(C)C [Oxim 3c, 1-Isopropyl-3-oximinoacetylaceton] | – | – | – | – | – | – | 23
